Source: publication PMC11676817, “Antiproliferative and Morphological Analysis Triggered by Drugs Contained in the Medicines for Malaria Venture COVID-Box Against Toxoplasma gondii Tachyzoites” (Microorganisms, 2024)
Where two headings read alike, the source gives them in different places.

Legend:
[1] = in vitro; conditions: human
[2] = cited from earlier work
[3] = in vivo; cited from earlier work
[4] = cited from earlier work; remark: listed apart in the source
[5] = system: Toxoplasma gondii tachyzoites of the RH strain; test: microbe, parasite or virus in culture; conditions: 168 h
[6] = system: Toxoplasma gondii tachyzoites of the RH strain; test: microbe, parasite or virus in culture; format: cell-based; conditions: for activity at 0.0625 µM / inhibition at 0.0625 µM: 62.5 nM; for activity at 0.125 µM: 125 nM; for activity at […]: 250 nM
[7] = system: T. gondii tachyzoites; test: Transmission electron microscopy of treated tachyzoites; format: cell-based, Toxoplasma gondii
Description: NHDF cultures infected with T. gondii were treated with compounds and fixed with 2.5% glutaraldehyde (EM Grade—Ted Pella Inc., Redding, CA, USA) in 0.1 M sodium cacodylate buffer pH 7.4 (Ted Pella Inc.). Cells were post-fixed with 1% osmium tetroxide, 1.25% potassium ferrocyanide, and 5 mM CaCl2, in 0.1 M sodium cacodylate buffer (pH 7.4). The sample fixation and processing for microscopy were performed as previously described. Samples were dehydrated in alcohol solutions of increasing concentrations (35–100%) and embedded in epoxy resin (Polybed 812, Polysciences). Ultrathin sections were collected in copper grids 300 mesh (Ted Pella Inc.), stained with uranyl acetate and lead citrate, and then observed in a Fei TecNai G2 120 kV Spirit Electron Microscope (FEI Company, Eindhoven, The Netherlands).

[8] = Rat, cited from earlier work; for Cmax: read-out: Plasma concentration (Cmax)
[9] = cited from earlier work; remark: listed apart in the source
[10] = cited from earlier work; remark: listed apart in the source
[11] = system: T. gondii tachyzoites; test: Immunofluorescence microscopy of treated tachyzoites (aberrant cell division, rhoptry morphology); conditions: 24 h; for PVs with parasites with aberrant division: IMC1 and DAPI labeling
Description: Rabbit anti-IMC1 (1:1000) and anti-ARO (1:1000) (kindly provided by Dr. Dominique Soldati, Universite de Geneve, Switzerland) were used to label the mother cell and daughter cell pellicles throughout the endodyogeny process and rhoptries, respectively. Mouse anti-SAG1 (1:200; kindly donated by Dr. Tiago Mineo, Universidade Federal de Uberlândia) was used to label the parasite plasma membrane. DAPI (2 µg/mL; Sigma-Aldrich, St. Louis, MO, USA) was used to label the DNA. […] After labeling with antibodies, the coverslips were mounted onto slides using Prolong gold (Life Technologies), and samples were examined on a Zeiss Axio Observer Z1 microscope (Baden-Württemberg, Germany) or Olympus BX60 microscope (Shinjuku City, Tokyo, Japan).

[12] = system: Toxoplasma gondii tachyzoites of the RH strain; conditions: 7 days of treatment
[13] = system: T. gondii tachyzoites; conditions: cited from earlier work
[14] = set-up: method as in Table S3 supplementary ref 2; conditions: Mouse and Rat; ref Table S3 supplementary ref 2; cited from earlier work
[15] = set-up: method as in Table S3 supplementary ref 30; conditions: Rat and Monkey; ref Table S3 supplementary ref 30; cited from earlier work
[16] = Cytotoxicity assay in NHDF cells (MTS); conditions: human
[17] = NHDF, read-out: IC50 (μM) in Tachyzoites, RH strain in NHDF cells, plaque assay, 7 days of treatment
[18] = Toxoplasma gondii, 31.2 nM, 24 h of treatment, read-out: Proliferation index (%)
[19] = Toxoplasma gondii, 24 h of treatment, read-out: Proliferation index (%)
[20] = Toxoplasma gondii, 250 nM (0.25 µM), 24 h, read-out: Inhibition of parasite proliferation
[21] = ref Table S3 supplementary refs 28, 32
[22] = ref Table S3 supplementary refs 3, 10, 12, 28, 32
[23] = read-out: Plasma concentration (Cmax), Mouse/Mice, ref Table S3 supplementary refs 16, 27
[24] = Mice/Mouse, ref Table S3 supplementary refs 6, 16, 24, 27, 33
[25] = published in vivo studies, ref Table S3
[26] = read-out: IC50 against T. gondii proliferation, RH strain, 7 days of treatment
[27] = read-out: IC50 (μM) in Tachyzoites, RH strain in NHDF cells, plaque assay
[28] = Human, ref Table S3 supplementary refs 1, 4, 8, 11, 13, 15, 17, 18, 19, 23, 31
[29] = read-out: Plasma concentration (Cmax), Human, ref Table S3 supplementary refs 1, 4, 8, 11, 13, 15, 17, 18, 19, 23
[30] = read-out: Plasma concentration (Cmax), Human, ref Table S3 supplementary refs 20, 22, 25, 31
[31] = ref Table S3 supplementary refs 21, 29
[32] = Toxoplasma gondii, 24 h, read-out: Inhibition of parasite proliferation
[33] = read-out: IC50 against T. gondii proliferation, RH strain

Nc1nc(Nc2ccc3c(c2)CC[C@@H](N2CCCC2)CC3)nn1-c1cc2c(nn1)-c1ccccc1CCC2 [Bemcentinib]
CC50 at 7 days [1]: 970 ± 150 nM
selectivity ratio at 7 days [1]: 6
Cmax ([2]; human, in vivo): 105 nM
Plasma concentration (Cmax) ([2]; human, in vivo): 53 ng/mL
Does it cross the blood-brain barrier or is found in the brain? [3]: Yes
Brain availability ([4]; in vivo): confirmed
IC50 [5, 17]: 0.15 ± 0.03 µM

CC[C@@H](C(=O)[C@@H](C)[C@@H](O)[C@H](C)[C@@H]1O[C@@H]([C@@H](CC)C(=O)O)CC[C@@H]1C)[C@H]1O[C@]2(C=C[C@@H](O)[C@]3(CC[C@@](C)([C@H]4CC[C@](O)(CC)[C@H](C)O4)O3)O2)[C@H](C)C[C@@H]1C [Salinomycin]
activity at 0.0312 µM [6, 18]: 79.1%
activity at 0.0625 µM [6, 19]: 21.9%
activity at 0.125 µM [6, 19]: 14.4%
inhibition at […] [6, 20]: > 90%
activity at […] [6, 19]: 6.38%
Effect on T. gondii ultrastructure (TEM) ([7]; 125 and 250 nM, 24 h): extensive vacuolization process
CC50 at 7 days [1]: 1140 ± 170 nM
selectivity ratio at 7 days [1]: 16
Plasma concentration (Cmax) [8, 21]: 40 ng/mL
Cmax [8, 22]: 53.3 nM
Plasma concentration (Cmax) ([9]; Mice, ref Table S3 supplementary ref 27): 13.2 ng/mL
Cmax [9, 23]: 17.6 nM
Does it cross the blood-brain barrier or is found in the brain? [10, 24]: Yes
Brain availability [4, 25]: confirmed
IC50 [5, 26]: < 0.1 µM
IC50 [5, 17]: 0.07 ± 0.01 µM
Effect on tachyzoite morphology and cell division (fluorescence microscopy) ([11]; 125 nM): vacuoles containing fragmented parasites

COc1cc(NC(=O)Nc2cccc(CNC(=O)O[C@H]3CCOC3)c2)ccc1-c1cnco1 [Merimepodib]
inhibition at […] ([6]; Toxoplasma gondii, 1.5 µM, 24 h, read-out: Inhibition of parasite proliferation): 55 to 60%
inhibition at 2 µM ([6]; Toxoplasma gondii, 2.0 µM, 24 h, read-out: Inhibition of parasite proliferation): 55 to 60%
IC50 [12, 27]: 0.48 ± 0.08 µM
IC50 ([13]; 72 h of treatment, ref [23], read-out: IC50 for T. gondii tachyzoites): 780 nM
Plasma concentration (Cmax) [2, 28]: 1590 ng/mL
Cmax [2, 29]: 5510 nM
IC50 [5, 17]: < 0.5 µM

Ivermectin
Effect on T. gondii ultrastructure (TEM) ([7]; 1 µM, 48 h): induced the formation of myelin-like structures
Plasma concentration (Cmax) [2, 28]: 260.5 ng/mL
Cmax [2, 29]: 298 nM
Plasma concentration (Cmax) ([9]; Mouse, ref Table S3 supplementary ref 16): 642.3 ng/mL
Cmax [9, 23]: 734 nM
Effect on tachyzoite cell division (fluorescence microscopy) ([11]; 1 µM): significant cell division arrestment

CCN1CCN(Cc2ccc(Nc3ncc(F)c(-c4cc(F)c5nc(C)n(C(C)C)c5c4)n3)nc2)CC1 [Abemaciclib]
Does it cross the blood-brain barrier or is found in the brain? [14]: Yes
Plasma concentration (Cmax) [2, 28]: 492 ng/mL
Cmax [2, 29]: 971 nM
Brain availability [4, 25]: confirmed
IC50 [5, 26]: < 0.1 µM
IC50 [5, 17]: 0.09 ± 0.01 µM

CNC(=O)c1cc(Oc2ccc(NC(=O)Nc3ccc(Cl)c(C(F)(F)F)c3)c(F)c2)ccn1 [Regorafenib]
CC50 at 7 days [1]: 3030 ± 10 nM
selectivity ratio at 7 days [1]: 12
Cmax ([2]; human, in vivo): 3900 nM
Plasma concentration (Cmax) ([2]; human, in vivo): 1900 ng/mL
Does it cross the blood-brain barrier or is found in the brain? [3]: Yes
Brain availability ([4]; in vivo): confirmed
IC50 [5, 17]: 0.25 ± 0.04 µM

CNC(=O)c1cc(Oc2ccc(NC(=O)Nc3ccc(Cl)c(C(F)(F)F)c3)cc2)ccn1 [Sorafenib]
Does it cross the blood-brain barrier or is found in the brain? [15]: Yes
Plasma concentration (Cmax) [2, 28]: 1001.3 ng/mL
Cmax [2, 30]: 2200 nM
Plasma concentration (Cmax) ([8]; ref Table S3 supplementary ref 29): 2410 ng/mL
Cmax [8, 31]: 5200 nM
Brain availability [4, 25]: confirmed
IC50 [5, 17]: 0.56 ± 0.03 µM

CC(C)C[C@H](NC(=O)[C@H](Cc1ccccc1)NC(=O)c1cnccn1)B(O)O [Bortezomib]
inhibition at 0.0312 µM ([6]; Toxoplasma gondii, 31.2 nM, 24 h, read-out: Inhibition of parasite proliferation): 75 to 80%
activity at 0.0312 µM [6, 18]: 20.9%
inhibition at 0.0625 µM [6, 32]: > 90%
activity at 0.0625 µM [6, 19]: 9.23%
Effect on T. gondii ultrastructure (TEM) ([7]; 62.5 nM, 48 h): affected the parasite cell division
IC50 [12, 27]: 0.03 µM
IC50 [12, 33]: < 0.03 µM
EC50 ([13]; 72 h of treatment, ref Cajazeiro et al. (2022) [24], read-out: EC50 against T. gondii): 220 nM
IC50 ([13]; 72 h of treatment, ref [34], read-out: IC50 in tachyzoites of T. gondii): 100 nM
selectivity ratio at 7 days [1]: 24
Cmax ([2]; human, in vivo): 148 nM
Plasma concentration (Cmax) ([2]; human, in vivo): 56.7 ng/mL
IC50 [5, 26]: ≤ 0.03 µM
CC50 at 7 days [16]: 720 ± 240 nM
PVs with parasites with aberrant division ([11]; 31.2 nM): 23.6%
PVs with parasites with aberrant division ([11]; 62.5 nM): 48.0%

Cc1cccc(/C=N/Nc2cc(N3CCOCC3)nc(OCCc3ccccn3)n2)c1 [Apilimod]
Inhibition of parasite proliferation, in words ([6]; 0.5–1 µM, 24 h): modest inhibition
activity at 0.5 µM ([6]; Toxoplasma gondii, 500 nM, 24 h of treatment, read-out: Proliferation index (%)): 99.7%
activity at 1 µM ([6]; Toxoplasma gondii, 1000 nM, 24 h of treatment, read-out: Proliferation index (%)): 73.2%
CC50 at 7 days [1]: 2120 ± 120 nM
selectivity ratio at 7 days [1]: 10
Cmax ([9]; mouse, in vivo): 2530 nM
Does it cross the blood-brain barrier or is found in the brain? ([10]; mouse, in vivo): Yes
Brain availability ([4]; in vivo): confirmed
IC50 [5, 17]: 0.22 ± 0.06 µM

COc1ccc2cc1Oc1ccc(cc1)C[C@H]1c3cc(c(OC)cc3CCN1C)Oc1c(OC)c(OC)cc3c1[C@H](C2)N(C)CC3 [Tetrandrine]
CC50 at 7 days [1]: 4770 ± 8250 nM
selectivity ratio at 7 days [1]: 14
Plasma concentration (Cmax) [8, 21]: 237.10 ng/mL
Cmax [8, 22]: 381 nM
Does it cross the blood-brain barrier or is found in the brain? [10, 24]: Yes
Brain availability [4, 25]: confirmed
IC50 [5, 17]: 0.35 ± 0.07 µM

COc1c(C)c2c(c(O)c1C/C=C(\C)CCC(=O)O)C(=O)OC2 [Mycophenolic acid]
activity at 0.125 µM [6, 19]: 61.3%
inhibition at […] [6, 20]: 55 to 60%
activity at […] [6, 19]: 42%
Effect on T. gondii ultrastructure (TEM) ([7]; 250 nM, 48 h): affected the tachyzoites’ division process
IC50 ([13]; 24 h of treatment, ref [23], read-out: IC50 for T. gondii tachyzoites): 211000 nM
selectivity ratio at 7 days [1]: 340
Plasma concentration (Cmax) ([2]; Human, ref Table S3 supplementary refs 20, 25): 24300 ng/mL
Cmax [2, 30]: 75800 nM
IC50 [5, 26]: < 0.1 µM
IC50 [5, 17]: 0.07 ± 0.01 µM
CC50 at 7 days [16]: 23800 ± 32000 nM

O=C(Nc1ccc([N+](=O)[O-])cc1Cl)c1cc(Cl)ccc1O [Niclosamide]
selectivity ratio at 7 days [1]: 8
Plasma concentration (Cmax) ([2]; Human, ref Table S3 supplementary ref 22): 1280 ng/mL
Cmax [2, 30]: 3900 nM
Cmax [8, 31]: 1080 nM
IC50 [5, 17]: 0.36 ± 0.02 µM
CC50 at 7 days [16]: 3050 ± 80 nM

C[C@@H]1C[C@@H]([C@H](O)CC2CC(=O)NC(=O)C2)C(=O)[C@@H](C)C1 [Cycloheximide]
activity at 0.0312 µM [6, 18]: 47.9%
inhibition at 0.0625 µM [6, 32]: 75 to 80%
activity at 0.0625 µM [6, 19]: 30.5%
activity at 0.125 µM [6, 19]: 33%
Effect on T. gondii ultrastructure (TEM) ([7]; 62.5 nM, 48 h): increased endoplasmic reticulum area
Effect on T. gondii ultrastructure (TEM) ([7]; 125 nM, 48 h): vacuoles containing parasites were completely lysed
IC50 [12, 27]: 0.02 µM
IC50 [12, 33]: < 0.03 µM
CC50 at 7 days [1]: 6080 ± 4630 nM
Plasma concentration (Cmax) ([8]; ref Table S3 supplementary refs 3, 10, 12, 21): 43.1 ng/mL
Cmax [8, 22]: 153 nM
IC50 [5, 26]: ≤ 0.03 µM
